Counter-ions that a name gives are not always drawn. Like-named read-outs stand apart in the source and are kept apart here. Some results are limits rather than exact numbers.

One experiment addresses EGFR L858R/T790M (Homo sapiens (Human), UniProt P00533, L858R/T790M). The experiment is described as follows: HTRF-based EGFR biochemical assay (L858R/T790M). The settings on record: 100 μM ATP, enzyme 0.02 nM. The gist of the method:
(§1)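 Mutant EGFR (L858R 0.1 nM, L858R/T790M 0.02 nM) preincubated 30 min with compounds at room temperature in HEPES pH 7.0 buffer with Mg2+/Mn2+, then reacted 20 min with 1 μM biotinylated tyrosine kinase peptide and 100 μM ATP. Phosphorylation read by HTRF (Eu-cryptate anti-phosphotyrosine/streptavidin-XL665, 665/620 nm) after EDTA quench.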

Experiment [1] has as its system EGFR mutant L858R/T790M Ba/F3 cells. The experiment is described as follows: Ba/F3 cell proliferation model (Cell Titer Glo), EGFR L858R/T790M. The format is cell-based, murine. The settings on record: 72 hours. In outline: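 Retrovirally transduced Ba/F3 cells exposed 72 h to compound alone or with 1 μg/mL cetuximab, triplicate points, repeated at least three times. Viability by Cell Titer Glo luminescence (ATP); curves fitted by non-linear sigmoidal dose-response regression.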

A further experiment addresses EGFR L858R (Homo sapiens (Human), UniProt P00533, L858R). The experiment is described as follows: HTRF-based EGFR biochemical assay (L858R). The settings on record: 100 μM ATP, enzyme 0.1 nM. In outline:
as §1

Setting [2] is: Mus musculus, BaF3, single agent, read-out: Cell IC50 BaF3 EGFR L858R/T790M.
Where [3] appears, read: in combination with 1 μg/mL cetuximab, read-out: Cell IC50 BaF3 EGFR L858R/T790M (+cetux.).

Sequence of EGFR L858R (P00533 25-1210 L858R): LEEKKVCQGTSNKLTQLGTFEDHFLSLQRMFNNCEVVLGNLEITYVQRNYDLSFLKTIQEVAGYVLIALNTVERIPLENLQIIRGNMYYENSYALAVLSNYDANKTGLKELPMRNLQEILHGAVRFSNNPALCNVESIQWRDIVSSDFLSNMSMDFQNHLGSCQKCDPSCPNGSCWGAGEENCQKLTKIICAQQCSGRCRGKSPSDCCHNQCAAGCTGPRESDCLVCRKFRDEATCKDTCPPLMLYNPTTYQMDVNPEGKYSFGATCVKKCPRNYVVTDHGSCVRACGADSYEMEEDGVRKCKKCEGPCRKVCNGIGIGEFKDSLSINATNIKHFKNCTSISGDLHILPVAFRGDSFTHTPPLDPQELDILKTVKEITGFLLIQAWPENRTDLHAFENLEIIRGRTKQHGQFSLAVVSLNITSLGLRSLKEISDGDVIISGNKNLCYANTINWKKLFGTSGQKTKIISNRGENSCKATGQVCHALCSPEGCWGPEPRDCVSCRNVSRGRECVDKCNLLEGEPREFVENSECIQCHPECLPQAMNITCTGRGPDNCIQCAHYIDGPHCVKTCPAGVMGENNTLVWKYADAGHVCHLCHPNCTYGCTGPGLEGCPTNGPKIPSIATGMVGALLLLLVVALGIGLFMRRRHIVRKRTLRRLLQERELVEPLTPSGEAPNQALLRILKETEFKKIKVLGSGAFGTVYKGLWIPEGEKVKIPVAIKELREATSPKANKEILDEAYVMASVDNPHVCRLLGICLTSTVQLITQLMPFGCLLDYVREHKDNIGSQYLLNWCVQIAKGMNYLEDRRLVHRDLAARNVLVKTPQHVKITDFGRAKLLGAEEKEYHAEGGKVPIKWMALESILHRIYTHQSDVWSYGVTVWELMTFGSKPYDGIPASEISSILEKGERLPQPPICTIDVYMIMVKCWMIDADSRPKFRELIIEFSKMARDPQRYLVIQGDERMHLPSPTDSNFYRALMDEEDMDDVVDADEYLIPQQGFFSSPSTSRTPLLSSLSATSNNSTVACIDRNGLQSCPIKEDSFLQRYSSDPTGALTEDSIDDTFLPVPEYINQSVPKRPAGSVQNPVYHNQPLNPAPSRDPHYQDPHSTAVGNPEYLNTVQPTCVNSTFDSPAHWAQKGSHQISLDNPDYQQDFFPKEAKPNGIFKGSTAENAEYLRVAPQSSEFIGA
Sequence of EGFR L858R/T790M (P00533 25-1210 T790M/L858R): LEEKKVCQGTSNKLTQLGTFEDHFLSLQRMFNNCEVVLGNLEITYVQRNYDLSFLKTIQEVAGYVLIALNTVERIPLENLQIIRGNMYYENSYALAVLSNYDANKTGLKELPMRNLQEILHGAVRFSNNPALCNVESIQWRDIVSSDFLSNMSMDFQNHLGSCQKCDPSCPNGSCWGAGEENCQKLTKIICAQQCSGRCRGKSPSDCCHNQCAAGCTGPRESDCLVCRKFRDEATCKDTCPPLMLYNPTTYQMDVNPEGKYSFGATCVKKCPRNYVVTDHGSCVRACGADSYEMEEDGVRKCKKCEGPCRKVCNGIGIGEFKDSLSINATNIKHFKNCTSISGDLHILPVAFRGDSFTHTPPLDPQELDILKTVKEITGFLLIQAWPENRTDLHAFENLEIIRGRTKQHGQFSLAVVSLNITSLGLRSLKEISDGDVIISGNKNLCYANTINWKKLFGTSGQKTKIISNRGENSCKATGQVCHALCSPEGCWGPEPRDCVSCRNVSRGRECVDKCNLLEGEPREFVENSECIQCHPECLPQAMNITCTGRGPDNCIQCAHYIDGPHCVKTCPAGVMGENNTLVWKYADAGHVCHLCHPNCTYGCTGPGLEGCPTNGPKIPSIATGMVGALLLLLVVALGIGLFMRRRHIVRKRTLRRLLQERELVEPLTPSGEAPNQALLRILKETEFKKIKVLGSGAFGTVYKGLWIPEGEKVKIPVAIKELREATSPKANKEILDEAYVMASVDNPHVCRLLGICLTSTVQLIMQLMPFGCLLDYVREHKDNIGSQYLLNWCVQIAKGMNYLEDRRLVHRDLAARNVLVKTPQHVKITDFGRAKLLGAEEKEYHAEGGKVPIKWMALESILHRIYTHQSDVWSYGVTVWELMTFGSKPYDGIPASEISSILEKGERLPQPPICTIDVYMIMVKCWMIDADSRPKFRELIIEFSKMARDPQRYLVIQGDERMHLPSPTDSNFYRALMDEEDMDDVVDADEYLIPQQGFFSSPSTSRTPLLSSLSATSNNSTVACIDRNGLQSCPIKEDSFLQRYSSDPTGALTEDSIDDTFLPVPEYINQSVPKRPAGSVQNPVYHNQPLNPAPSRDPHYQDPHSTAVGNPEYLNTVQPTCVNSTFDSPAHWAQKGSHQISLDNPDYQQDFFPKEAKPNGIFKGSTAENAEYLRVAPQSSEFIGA

Regarding `CN1CC(c2ccc(-c3ccc4c(c3)C(=O)N(C(c3nc5ccccc5[nH]3)c3cc(F)ccc3O)C4)cc2)C1` (centres unmarked) [Compound 049, 2-[1H-benzimidazol-2-yl-(5-fluoro-2-hydroxy-phenyl)methyl]-6-[4-(1-methylazetidin-3-yl)phenyl]isoindolin-1-one], the IC50 is 2 nM on EGFR L858R/T790M, 2540 nM in experiment [1] (setting [2]), 20 nM in experiment [1] (setting [3]) and 6 nM on EGFR L858R.

`CN1CCC(c2ccc(-c3ccc4c(c3)C(=O)N(C(c3nc5nccnc5[nH]3)c3cc(F)ccc3O)C4)cc2)CC1` (centres unmarked) [Compound 019, 2-[(5-Fluoro-2-hydroxy-phenyl)-(1H-imidazo[4,5-b]pyrazin-2-yl)methyl]-6-[4-(1-methyl-4-piperidyl)phenyl]isoindolin-1-one; hydrochloride]: the IC50 on EGFR L858R/T790M is 1 nM; in experiment [1] (setting [2]), 1870 nM; in experiment [1] (setting [3]) it was 10 nM; against EGFR L858R, 4 nM.

In the case of `CN1CCC(c2ccc(-c3ccc4c(c3F)C(=O)N(C(c3nc5c(F)cccc5[nH]3)c3cc(F)ccc3O)C4)cc2F)CC1` (centres unmarked) [Compound 081, 7-fluoro-2-[(4-fluoro-1H-benzimidazol-2-yl)-(5-fluoro-2-hydroxy-phenyl)methyl]-6-[3-fluoro-4-(1-methyl-4-piperidyl)phenyl]isoindolin-1-one; dihydrochloride], the IC50 turned out to be 0.8 nM against EGFR L858R/T790M, 210 nM in experiment [1] (setting [2]) and 6 nM against EGFR L858R.

For `CN1CCC(c2ccc(-c3ccc4c(c3)C(=O)N(C(c3nc5ccccc5[nH]3)c3cc(F)ccc3O)C4)c(F)c2)CC1` (centres unmarked) [Compound 029, 2-[1H-benzimidazol-2-yl-(5-fluoro-2-hydroxy-phenyl)-methyl]-6-[2-fluoro-4-(1-methyl-4-piperidyl)phenyl]isoindolin-1-one; formic acid], the IC50 was found to be 0.6 nM against EGFR L858R/T790M, 760 nM in experiment [1] (setting [2]), 20 nM in experiment [1] (setting [3]) and 2 nM on EGFR L858R.

As to `CN1CCC(c2ccc(-c3ccc4c(c3)C(=O)N(C(c3nc5ccccc5[nH]3)c3n[nH]c5c3CCC5)C4)cc2)CC1` (centres unmarked) [Compound 033, 2-[1H-Benzimidazol-2-yl(1,4,5,6-tetrahydrocyclopenta[c]pyrazol-3-yl)methyl]-6-[4-(1-methyl-4-piperidyl)phenyl]isoindolin-1-one], the IC50 against EGFR L858R/T790M worked out at 6 nM; in experiment [1] (setting [2]), 5230 nM; in experiment [1] (setting [3]), 340 nM; at EGFR L858R, 24 nM.

Take `CN1CCC(c2ccc(-c3ccc4c(c3)C(=O)N(C(c3nc5c(Cl)cccc5[nH]3)c3cc(F)ccc3O)C4)cc2)CC1` (centres unmarked) [Compound 047, 2-[(4-chloro-1H-benzimidazol-2-yl)-(5-fluoro-2-hydroxy-phenyl)-methyl]-6-[4-(1-methyl-4-piperidyl)phenyl]isoindolin-1-one; formic acid]: the IC50 against EGFR L858R/T790M stood at 2 nM; in experiment [1] (setting [2]), 1840 nM; in experiment [1] (setting [3]), 80 nM; against EGFR L858R, 14 nM.

For the compound `Nc1ccc(-c2ccc(-c3ccc4c(c3)C(=O)N(C(c3nc5ccccc5[nH]3)c3cc(F)ccc3O)C4)cc2)cn1` (centres unmarked) [Compound 061, 6-[4-(6-amino-3-pyridyl)phenyl]-2-[1H-benzimidazol-2-yl-(5-fluoro-2-hydroxy-phenyl)-methyl]isoindolin-1-one; hydrochloride], the IC50 on EGFR L858R/T790M stood at 11 nM; in experiment [1] (setting [2]), 790 nM; in experiment [1] (setting [3]), 20 nM; at EGFR L858R it was 69 nM.

Take `CN(C)CCN(C)c1ccc(-c2ccc3c(c2)C(=O)N(C(c2nc4ccccc4[nH]2)c2cc(F)ccc2O)C3)cc1` (centres unmarked) [Compound 041, 2-[1H-benzimidazol-2-yl-(5-fluoro-2-hydroxy-phenyl)-methyl]-6-[4-[2-(dimethylamino)-ethyl-methyl-amino]phenyl]-isoindolin-1-one; hydrochloride]: the IC50 at EGFR L858R/T790M is 2 nM; in experiment [1] (setting [2]) it was 950 nM; in experiment [1] (setting [3]), 20 nM; against EGFR L858R, 5 nM.

In the case of `CN1CCC(C#Cc2ccc3c(c2)C(=O)N(C(c2nc4ccccc4[nH]2)c2cc(F)ccc2O)C3)CC1` (centres unmarked) [Compound 011, 2-[1H-benzimidazol-2-yl-(5-fluoro-2-hydroxy-phenyl)methyl]-6-[2-(1-methyl-4-piperidyl)-ethynyl]isoindolin-1-one; hydrochloride], the IC50 on EGFR L858R/T790M was 10 nM; in experiment [1] (setting [2]), 1920 nM; in experiment [1] (setting [3]), 10 nM; against EGFR L858R, 15 nM.

Turning to `CN1CCC(c2ccc(-c3ccc4c(c3)C(=O)N(C(c3nc5ccccc5[nH]3)c3cc(F)ccc3O)C4)cc2F)CC1` (centres unmarked) [Compound 017, 2-[1H-Benzimidazol-2-yl-(5-fluoro-2-hydroxy-phenyl)methyl]-6-[3-fluoro-4-(1-methyl-4-piperidyl)phenyl]isoindolin-1-one; hydrochloride], the IC50 on EGFR L858R/T790M turned out to be 0.4 nM; in experiment [1] (setting [2]), 260 nM; in experiment [1] (setting [3]), 6 nM; against EGFR L858R it was 1 nM.

For the compound `CN1CCC(c2ccc(-c3ccc4c(c3)C(=O)N(C(c3nc5cc(F)ccc5[nH]3)c3cc(F)ccc3O)C4)cc2)CC1` (centres unmarked) [Compound 046, 2-[(5-fluoro-1H-benzimidazol-2-yl)-(5-fluoro-2-hydroxy-phenyl)-methyl]-6-[4-(1-methyl-4-piperidyl)phenyl]isoindolin-1-one; formic acid], the IC50 at EGFR L858R/T790M came to 0.7 nM; in experiment [1] (setting [2]), 860 nM; in experiment [1] (setting [3]), 20 nM; against EGFR L858R, 4 nM.

Take `O=C1c2cc(-c3ccc(N4CCOCC4)cc3)ccc2CN1C(c1nc2ccccc2[nH]1)c1cc(F)ccc1O` (centres unmarked) [Compound 059, 2-(1H-benzimidazol-2-yl-(5-fluoro-2-hydroxy-phenyl)-methyl]-6-(4-morpholinopheny)-isoindolin-1-one; hydrochloride]: the IC50 against EGFR L858R/T790M was 13 nM; in experiment [1] (setting [2]), 790 nM; in experiment [1] (setting [3]) it was 10 nM; on EGFR L858R, above 100 nM.

Consider `CN1CCC(c2ccc(-c3ccc4c(c3)C(=O)N(C(c3nc5cncnc5[nH]3)c3cc(F)ccc3O)C4)cc2)CC1` (centres unmarked) [Compound 018, 2-[(5-Fluoro-2-hydroxy-phenyl)-(9H-purin-8-yl)methyl]-6-[4-(1-methyl-4-piperidyl)phenyl]isoindoiin-1-one; hydrochloride], for which the IC50 at EGFR L858R/T790M stood at 5 nM; in experiment [1] (setting [2]) it was 3490 nM; in experiment [1] (setting [3]), 20 nM; against EGFR L858R, 9 nM.

For `CN1CCC(c2ccc(-c3ccc4c(c3)C(=O)N([C@H](c3nc5ccccc5[nH]3)c3cc(F)ccc3O)C4)cc2)CC1` (single isomer, unassigned) [Compound 023], the IC50 on EGFR L858R/T790M is 1 nM; in experiment [1] (setting [2]) it was 950 nM; in experiment [1] (setting [3]), 20 nM; on EGFR L858R, 6 nM.

As for `Cc1c(-c2ccc(C3CCN(C)CC3)cc2)ccc2ncn(C(c3nc4ccccc4[nH]3)c3cc(F)ccc3O)c(=O)c12` (centres unmarked) [Compound 055, 3-[1H-benzimidazol-2-yl-(5-fluoro-2-hydroxy-phenyl)-methyl]-5-methyl-6-[4-(1-methyl-4-piperidyl)phenyl]-quinazolin-4-one; dihydrochloride], the IC50 was determined as 1 nM at EGFR L858R/T790M, 100 nM in experiment [1] (setting [2]), 10 nM in experiment [1] (setting [3]) and 2 nM at EGFR L858R.

Source of the values: patent US12391671B2, “Allosteric EGFR inhibitors and methods of use thereof” (Dana-Farber Cancer Institute, Inc., priority 2019, dated 2025).
